According to ChEMBL document CHEMBL6109134, “Discovery of AMG 193, an MTA-Cooperative PRMT5 Inhibitor for the Treatment of MTAP-Deleted Cancers” (J Med Chem, 2025):

What was measured:
[1] = target: Protein arginine N-methyltransferase 5 (Homo sapiens) (UniProt O14744); assay: Binding affinity to PRMT5 (unknown origin) assessed as occupancy in presence of MTA by SPR analysis relative to control
[2] = system: HCT-116; assay: Antiproliferative activity against MTAP-deleted human HCT-116 cells assessed as effect on cell viability incubated for 6 days by Celltiter-Glo luminescent cell viability assay; type: functional, cell-based; conditions: HCT-116, 144 h
[3] = Toxicity in female athymic nude mouse xenografted with MTAP-deleted human HCT-116 cells assessed as body weight change at 3 to 100 mg/kg, po administered once daily for 14 days; type: organism-based; conditions: in vivo, 336 h, dose 3-100 mg/kg, time 14 day
[4] = system: BXPC-3; assay: Antitumor activity against MTAP-deleted human BXPC-3 cells xenografted in athymic nude mouse model assessed as tumor growth inhibition at 30 mg/kg, po administered once daily for 26 days and measured 24 hrs post last dose relative to control; type: functional; conditions: BXPC-3, 648 h, time 27 day, read-out: TGI
[5] = target: Protein arginine N-methyltransferase 5 (Homo sapiens) (UniProt O14744); assay: In vivo inhibition of PRMT5 in athymic nude mouse xenografted with MTAP-deleted human HCT-116 cells assessed as decrease in SDMA level in tumor at 10 mg/kg, po administered once daily for 4 days and measured 4 hrs post last dose by ELISA relative to control; type: functional, organism-based; conditions: time 4.0 day
[6] = target: Cytochrome P450 2C9 (Homo sapiens, UniProt P11712); assay: Inhibition of CYP2C9 (unknown origin)
Sequence of Cytochrome P450 2C9 (P11712 whole entry): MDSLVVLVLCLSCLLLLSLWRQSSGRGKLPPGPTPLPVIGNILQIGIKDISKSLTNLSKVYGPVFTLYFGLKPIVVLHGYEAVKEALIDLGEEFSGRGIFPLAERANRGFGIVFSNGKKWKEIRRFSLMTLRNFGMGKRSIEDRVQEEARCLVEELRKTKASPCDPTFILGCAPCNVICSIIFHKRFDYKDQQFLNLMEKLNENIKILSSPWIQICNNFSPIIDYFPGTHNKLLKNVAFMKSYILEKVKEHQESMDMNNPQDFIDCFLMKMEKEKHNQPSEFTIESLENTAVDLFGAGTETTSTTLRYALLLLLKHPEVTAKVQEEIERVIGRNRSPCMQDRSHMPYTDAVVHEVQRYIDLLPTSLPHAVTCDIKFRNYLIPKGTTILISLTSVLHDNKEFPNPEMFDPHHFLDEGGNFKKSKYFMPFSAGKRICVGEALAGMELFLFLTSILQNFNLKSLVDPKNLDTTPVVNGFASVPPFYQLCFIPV

[7] = system: U-87 MG; assay: Antiproliferative activity against human U-87 MG cells assessed as effect on cell viability; type: functional, cell-based, U-87MG ATCC
[8] = Mutagenicity in Salmonella typhimurium by Ames test; type: toxicity; conditions: salmonella enterica subsp. enterica serovar typhimurium
[9] = Toxicity in female athymic nude mouse xenografted with MTAP-deleted human U-87 MG cells assessed as effect on body weight at 10 to 100 mg/kg, po administered once daily for 14 days; type: organism-based; conditions: in vivo, 336 h, dose 10-100 mg/kg, time 14 day
[10] = Unbound CSF-to-plasma concentration ratio in female Sprague-Dawley rat at 25 mg/kg, po administered as single dose; type: ADME, organism-based
[11] = target: Protein arginine N-methyltransferase 5 (Homo sapiens) (UniProt O14744); assay: In vivo inhibition of PRMT5 in athymic nude mouse xenografted with human HCT-116 cells harboring wildtype MTAP assessed as decrease in SDMA level in tumor at 3 mg/kg, po administered once daily for 4 days and measured 4 hrs post last dose by ELISA relative to control; type: functional, organism-based; conditions: time 4.0 day
[12] = target: T1, Broad substrate specificity ATP-binding cassette transporter ABCG2 (Homo sapiens, UniProt Q9UNQ0); assay: Effect on BCRP (unknown origin)-mediated transport up to 10 uM
T1 sequence (Q9UNQ0 whole entry): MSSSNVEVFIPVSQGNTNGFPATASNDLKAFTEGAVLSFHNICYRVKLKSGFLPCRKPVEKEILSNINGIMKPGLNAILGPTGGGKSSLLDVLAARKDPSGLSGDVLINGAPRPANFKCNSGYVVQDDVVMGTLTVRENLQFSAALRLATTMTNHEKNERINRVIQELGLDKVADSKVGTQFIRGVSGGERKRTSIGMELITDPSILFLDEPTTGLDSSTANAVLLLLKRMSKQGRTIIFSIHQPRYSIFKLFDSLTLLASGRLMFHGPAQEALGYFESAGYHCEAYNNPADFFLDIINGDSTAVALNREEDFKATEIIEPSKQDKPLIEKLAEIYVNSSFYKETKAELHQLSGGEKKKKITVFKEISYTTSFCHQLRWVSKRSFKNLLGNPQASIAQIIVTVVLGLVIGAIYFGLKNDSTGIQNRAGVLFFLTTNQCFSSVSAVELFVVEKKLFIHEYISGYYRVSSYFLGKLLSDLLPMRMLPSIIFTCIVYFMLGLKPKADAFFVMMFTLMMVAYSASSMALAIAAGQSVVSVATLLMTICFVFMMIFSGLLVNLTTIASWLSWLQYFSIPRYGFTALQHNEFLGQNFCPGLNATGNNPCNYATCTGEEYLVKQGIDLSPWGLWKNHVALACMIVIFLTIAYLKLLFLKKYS

[13] = system: DOHH-2; assay: Antiproliferative activity against human DOHH-2 cells assessed as effect on cell viability; type: functional, cell-based
[14] = target: CYP3A4 (Homo sapiens, UniProt P08684); assay: in vitro; conditions: human liver microsomes, probe midazolam
Sequence of CYP3A4 (P08684 whole entry): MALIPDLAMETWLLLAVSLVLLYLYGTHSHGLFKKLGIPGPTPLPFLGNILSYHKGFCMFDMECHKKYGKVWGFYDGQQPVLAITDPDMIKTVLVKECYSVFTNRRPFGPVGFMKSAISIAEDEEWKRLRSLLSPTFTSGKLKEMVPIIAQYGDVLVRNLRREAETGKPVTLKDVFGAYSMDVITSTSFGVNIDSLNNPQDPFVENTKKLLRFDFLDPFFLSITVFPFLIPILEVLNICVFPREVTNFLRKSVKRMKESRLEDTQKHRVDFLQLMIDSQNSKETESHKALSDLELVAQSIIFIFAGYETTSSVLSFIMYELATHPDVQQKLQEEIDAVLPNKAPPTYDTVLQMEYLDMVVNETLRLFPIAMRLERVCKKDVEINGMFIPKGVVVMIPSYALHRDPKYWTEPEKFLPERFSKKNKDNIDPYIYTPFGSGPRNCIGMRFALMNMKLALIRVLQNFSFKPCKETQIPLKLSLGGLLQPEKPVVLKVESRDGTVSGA

[15] = Protein binding in mouse plasma assessed as unbound fraction by ultracentrifugation; conditions: plasma
[16] = in vivo; conditions: Sprague-Dawley, rat, po, 2 mg/kg, pH 2
[17] = Protein binding in rat plasma assessed as unbound fraction by ultracentrifugation
[18] = Efflux ratio in MDCK-II cells; conditions: dog
[19] = Toxicity in female rat up to 25 mg/kg, po administered as single dose for 14 days; type: organism-based; conditions: in vivo, 336 h, time 14 day
[20] = Metabolic stability in mouse hepatocytes assessed as intrinsic clearance measured per 10^6 cells; type: ADME, cell-based, Hepatocyte; conditions: read-out: CLH
[21] = Passive permeability in MDCK-II cells at 0.1 to 10 uM; type: ADME, cell-based, Canis lupus familiaris; conditions: dog, dose 0.1-10 µM, read-out: permeability
[22] = target: T2, Nuclear receptor subfamily 1 group I member 2 (Homo sapiens, UniProt O75469); assay: Activation of human PXR in human HepG2 cells co-transfected with CYP3A4-luciferase at 10 uM incubated for 1 day relative to control; conditions: hepg2, 24 h
T2 sequence (O75469 whole entry): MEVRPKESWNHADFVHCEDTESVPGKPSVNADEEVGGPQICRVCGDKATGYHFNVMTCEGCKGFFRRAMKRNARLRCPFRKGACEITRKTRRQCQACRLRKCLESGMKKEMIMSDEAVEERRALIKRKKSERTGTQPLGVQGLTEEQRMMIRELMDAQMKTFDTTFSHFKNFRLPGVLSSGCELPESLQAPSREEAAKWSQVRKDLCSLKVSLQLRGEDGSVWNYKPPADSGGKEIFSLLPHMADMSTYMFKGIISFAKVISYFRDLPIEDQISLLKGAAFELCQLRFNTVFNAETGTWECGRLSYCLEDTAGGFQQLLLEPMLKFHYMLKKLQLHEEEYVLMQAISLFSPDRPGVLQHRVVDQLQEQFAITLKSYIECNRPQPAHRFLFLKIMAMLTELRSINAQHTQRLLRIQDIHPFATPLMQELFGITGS

[23] = Antitumor activity against MTAP-deleted human U-87 MG cells xenografted in female athymic nude mouse model assessed as tumor growth inhibition at 30 mg/kg, po administered once daily for 14 days and measured 24 hrs post last dose relative to control; type: functional, U-87MG ATCC; conditions: 360 h, time 15 day, read-out: TGI
[24] = Unbound clearance in CD-1 mouse at 1 mg/kg, iv; type: ADME, organism-based; conditions: in vivo
[25] = Unbound clearance in Beagle dog at 0.5 mg/kg, iv; type: ADME, organism-based, Canis lupus familiaris; conditions: in vivo
[26] = Toxicity in male rat up to 75 mg/kg, po administered as single dose for 14 days; type: organism-based; conditions: in vivo, 336 h, time 14 day

Sequence of Protein arginine N-methyltransferase 5 (Homo sapiens) (O14744 whole entry): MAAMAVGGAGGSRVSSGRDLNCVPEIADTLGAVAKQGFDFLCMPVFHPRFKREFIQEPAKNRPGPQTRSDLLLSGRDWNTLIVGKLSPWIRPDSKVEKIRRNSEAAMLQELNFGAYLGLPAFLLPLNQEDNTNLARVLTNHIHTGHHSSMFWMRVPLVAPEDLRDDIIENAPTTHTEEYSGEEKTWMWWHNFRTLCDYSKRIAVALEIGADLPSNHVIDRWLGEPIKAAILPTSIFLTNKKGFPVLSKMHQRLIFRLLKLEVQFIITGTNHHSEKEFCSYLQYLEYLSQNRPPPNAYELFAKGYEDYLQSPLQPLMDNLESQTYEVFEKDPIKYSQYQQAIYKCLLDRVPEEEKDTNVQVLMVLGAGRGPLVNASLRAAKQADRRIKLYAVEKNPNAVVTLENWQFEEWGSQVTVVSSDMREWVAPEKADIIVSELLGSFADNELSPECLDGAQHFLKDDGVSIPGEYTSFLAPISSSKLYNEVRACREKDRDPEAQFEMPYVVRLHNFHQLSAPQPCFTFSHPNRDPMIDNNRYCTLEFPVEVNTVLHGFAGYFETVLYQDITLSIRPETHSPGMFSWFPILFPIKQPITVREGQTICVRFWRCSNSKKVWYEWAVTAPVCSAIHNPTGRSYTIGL

- Occ [1]: 70%
- IC50 [2]: 102 nM
- inhibition [5]: 73%
- IC50 [6]: 59000 nM
- IC50 [7]: 357 nM
- Kp uu [10]: 0.2
- inhibition [11]: 12%
- Activity [12]: Not_active
- inhibition at 30 min, 10 µM [14]: < 20%
- fraction unbound [15]: 0.07
- bioavailability [16]: 60%
- fraction unbound [17]: 0.1
- efflux ratio [18]: 3
- hepatocyte CLint [20]: 13 µL/min/1e6 cells
- Papp at up to 10 µM [21]: 33 ×10⁻⁶ cm/s
- Activity [22]: < 20%
- CL free [24]: 142 mL/min/kg
- CL free [25]: 50 mL/min/kg
Structure (SMILES): Nc1nc2cnc(C(=O)N3CCOC[C@@H]3c3ccc(C(F)(F)F)cc3)cc2c2c1COC2
- Activity [3]: Non-toxic
- inhibition in vivo at 30 mg/kg [4]: 61%
- Activity [8]: Non-toxic
- Activity [9]: Non-toxic
- IC50 [13]: 51 nM
- Activity [19]: Non-toxic
- inhibition in vivo at 30 mg/kg [23]: 57%
- Activity [26]: Non-toxic
